Patent publication US9067897B2, “2,4-Diaminoquinazolines for spinal muscular atrophy” (Families of Spinal Muscular Atrophy, priority 2004, dated 2015)
Structures can show the parent of a compound that is named as a salt.

system: SMN2 promoter; test: SMN2 promoter assay (β-lactamase reporter) in NSC-34 cells; format: cell-based, mouse; conditions: Mus musculus, SMN2 promoter driving β-lactamase, 12 point dose curve, average of 3-6 dose curve experiments
Text: All compounds were screened using an in vitro based SMN2 promoter assay. We used NSC-34 cells, a hybrid cell line between mouse spinal cord cells and mouse neuroblastoma cells. NSC-34 cells harbor an expression plasmid containing a 3.4 kb promoter fragment of the SMN2 gene driving β-lactamase expression.
[…] […] CCF2-AM diffuses across the plasma membrane and is converted into an active β-lactamase substrate by cytoplasmic esterase. […] The fold induction is proportional to the extent of β-lactamase produced and in turn proportional to SMN2 promoter activation for a given compound relative to vehicle (DMSO) control. […] These values are used to rank activities of the compounds and derive structure activity relationship.

Row | SMILES | EC50 [µM]
1 | Nc1nc(N)c2c(OCc3cnc4ccccc4c3)cccc2n1 [Example 112, 5-(Quinolin-3-ylmethoxy)-quinazoline-2,4-diamine] | < 1
2 | Nc1nc(N)c2c(OCc3cccc4cccnc34)cccc2n1 [Example 113, 5-(Quinolin-8-ylmethoxy)-quinazoline-2,4-diamine] | < 1
3 | COCC(Oc1cccc2nc(N)nc(N)c12)c1ccc(Cl)cc1 (stereo not shown) [Example 114, 5-[1-(4-Chlorophenyl)-2-methoxyethoxy]-quinazoline-2,4-diamine] | < 1
4 | Nc1nc(N)c2c(OC(C(=O)O)c3ccc(Cl)cc3)cccc2n1 (stereo not shown) [Example 115, (4-Chlorophenyl)-(2,4-diamino-quinazolin-5-yloxy)-acetic acid] | < 1
5 | Nc1nc(N)c2c(OCC3CCNCC3)cccc2n1 [Example 116, 5-(Piperidin-4-ylmethoxy)-quinazoline-2,4-diamine hydrochloride] | < 1
6 | CN1CCCCC1COc1cccc2nc(N)nc(N)c12 (stereo not shown) [Example 117, 5-(1-Methyl-piperidin-2-ylmethoxy)-quinazoline-2,4-diamine] | < 1
7 | Nc1nc(N)c2c(O[C@@H]3C[C@H]4CC[C@@H]3C4)cccc2n1 [Example 118, 5-((1R,2R,4S)-Bicyclo[2.2.1]hept-2-yloxy)quinazoline-2,4-diamine] | < 1
8 | CC(Oc1cccc2nc(N)nc(N)c12)C1CCCC1 (stereo not shown) [Example 120, 5-(1-Cyclopentyl-ethoxy)-quinazoline-2,4-diamine] | < 1
9 | CC(C)(C)OC(=O)N1CCC(COc2cccc3nc(N)nc(N)c23)CC1 [Example 121, 4-(2,4-Diamino-quinazolin-5-yloxymethyl)-piperidin-1-carboxylic acid tert-butyl ester] | < 1
10 | Nc1nc(N)c2c(OCC3CC4C=CC3C4)cccc2n1 (stereo not shown) [Example 122, 5-(Bicyclo[2.2.1]hept-5-en-2-ylmethoxy)-quinazoline-2,4-diamine] | < 1
11 | Nc1nc(N)c2c(OCC3CCN(C(=O)c4ccc(Cl)cc4)CC3)cccc2n1 [Example 123, (4-Chlorophenyl)-[4-(2,4-diamino-quinazolin-5-yloxymethyl)-piperidin-1-yl]-methanone] | < 1
12 | Nc1nc(N)c2c(OC3CC4CCC3C4)cccc2n1 (stereo not shown) [Example 124, 5-(Bicyclo[2.2.1]hept-2-yloxy)-quinazoline-2,4-diamine] | < 1
13 | CCCC(Oc1cccc2nc(N)nc(N)c12)C1CCCCC1 (stereo not shown) [Example 125, 5-(1-Cyclohexyl-butoxy)-quinazoline-2,4-diamine] | < 1
14 | CC(Oc1cccc2nc(N)nc(N)c12)C1CCCCC1 (stereo not shown) [Example 126, 5-(1-Cyclohexyl-ethoxy)-quinazoline-2,4-diamine] | < 1
15 | CC1(COc2cccc3nc(N)nc(N)c23)COC1 [Example 127, 5-(3-Methyl-oxetan-3-ylmethoxy)-quinazoline-2,4-diamine] | < 1
16 | Nc1nc(N)c2c(OC3COc4ccc(Cl)cc43)cccc2n1 (stereo not shown) [Example 128, 5-(5-Chloro-2,3-dihydro-benzofuran-3-yloxy)-quinazoline-2,4-diamine] | < 1
17 | CCC(Oc1cccc2nc(N)nc(N)c12)C1CCCCC1 (stereo not shown) [Example 129, 5-(1-Cyclohexylpropoxy)-quinazoline-2,4-diamine] | < 1
18 | Nc1nc(N)c2c(OCC3CC4CC3C(O)C4O)cccc2n1 (stereo not shown) [Example 131, 5-(2,4-Diamino-quinazolin-5-yloxymethyl)-bicyclo[2.2.1]heptane-2,3-diol] | < 1
19 | Nc1nc(N)c2c(OCC3CCN(C(=O)c4ccccc4Cl)CC3)cccc2n1 [Example 133, (2-Chlorophenyl)-[4-(2,4-diamino-quinazolin-5-yloxymethyl)-piperidin-1-yl]-methanone] | < 1
20 | Nc1nc(N)c2c(OCC3CCN(C(=O)c4cccc(Cl)c4)CC3)cccc2n1 [Example 134, (3-Chlorophenyl)-[4-(2,4-diamino-quinazolin-5-yloxymethyl)-piperidin-1-yl]-methanone] | < 1
21 | Nc1nc(N)c2c(COc3ccccc3Cl)cccc2n1 [Example 138, 5-(2-Chlorophenoxymethyl)quinazoline-2,4-diamine] | < 1
22 | Cc1cc(Cl)ccc1OCc1cccc2nc(N)nc(N)c12 [Example 139, 5-(4-Chloro-2-methylphenoxymethyl)quinazoline-2,4-diamine] | < 1
23 | CC(C)(Oc1cccc2nc(N)nc(N)c12)c1cccc(Cl)c1 [Example 140, 5-[1-(3-Chlorophenyl)-1-methylethoxy]quinazoline-2,4-diamine] | 1 to 5

Row | SMILES | EC50 [µM]
24 | Cc1cc(OCc2cccc3nc(N)nc(N)c23)ccc1Cl [Example 141, 5-(4-Chloro-3-methylphenoxymethyl)quinazoline-2,4-diamine] | < 1
25 | COc1ccccc1COc1cccc2nc(N)nc(N)c12 [Example 142, 5-(2-Methoxybenzyloxy)quinazoline-2,4-diamine] | < 1
26 | COc1cccc(COc2cccc3nc(N)nc(N)c23)c1 [Example 143, 5-(3-Methoxybenzyloxy)quinazoline-2,4-diamine] | < 1
27 | COc1ccc(COc2cccc3nc(N)nc(N)c23)cc1 [Example 144, 5-(4-Methoxybenzyloxy)quinazoline-2,4-diamine] | < 1
28 | Nc1nc(N)c2c(OC3(c4cccc(Cl)c4)CCCCC3)cccc2n1 [Example 145, 5-[1-(3-Chlorophenyl)cyclohexyloxy]quinazoline-2,4-diamine] | 1 to 5
29 | Nc1nc(N)c2c(OC3(c4cccc(Cl)c4)CC3)cccc2n1 [Example 146, 5-[1-(3-Chlorophenyl)cyclopropoxy]quinazoline-2,4-diamine] | < 1
30 | Nc1nc(N)c2c(COc3ccc(F)cc3F)cccc2n1 [Example 147, 5-(2,4-Difluorophenoxymethyl)quinazoline-2,4-diamine] | < 1
31 | COc1ccc(OCc2cccc3nc(N)nc(N)c23)cc1 [Example 148, 5-(4-Methoxyphenoxymethyl)quinazoline-2,4-diamine] | 1 to 5
32 | Nc1nc(N)c2c(O[C@H]3CCc4ccc(Cl)cc43)cccc2n1 [Example 149, 5-((S)-6-Chloroindan-1-yloxy)quinazoline-2,4-diamine] | < 1
33 | Nc1nc(N)c2c(O[C@@H]3CCc4ccc(Cl)cc43)cccc2n1 [Example 150, 5-((R)-6-Chloroindan-1-yloxy)quinazoline-2,4-diamine] | < 1
34 | Nc1nc(N)c2c(OCC3CC4CCC3C4)cccc2n1 (stereo not shown) [Example 151, 5-(Bicyclo[2.2.1]hept-2-ylmethoxy)quinazoline-2,4-diamine] | < 1
35 | CC1(C)[C@H]2CC[C@H](COc3cccc4nc(N)nc(N)c34)[C@@H]1C2 [Example 152, 5-((1S,2S,5S)-6,6-Dimethylbicyclo[3.1.1]hept-2-ylmethoxy) quinazoline-2,4-diamine] | < 1
36 | COCOCC(Oc1cccc2nc(N)nc(N)c12)c1ccc(F)cc1 (stereo not shown) [Example 153, 5-[1-(4-Fluorophenyl)-2-methoxymethoxyethoxy]quinazoline-2,4-diamine] | < 1
37 | Nc1nc(N)c2c(OC(CO)c3ccc(F)cc3)cccc2n1 (stereo not shown) [Example 154, 2-(2,4-Diaminoquinazolin-5-yloxy)-2-(4-fluorophenyl)ethanol hydrochloride] | < 1
38 | COCOC(COc1cccc2nc(N)nc(N)c12)c1ccc2c(c1)OCO2 (stereo not shown) [Example 155, 5-(2-Benzo[1,3]dioxol-5-yl-2-methoxymethoxyethoxy)quinazoline-2,4-diamine] | < 1
39 | COCOCC(Oc1cccc2nc(N)nc(N)c12)c1ccc2c(c1)OCO2 (stereo not shown) [Example 156, 5-(1-Benzo[1,3]dioxol-5-yl-2-methoxymethoxyethoxy)quinazoline-2,4-diamine] | < 1
40 | Nc1nc(N)c2c(OCC(O)c3ccccc3)cccc2n1 (stereo not shown) [Example 157, 2-(2,4-Diaminoquinazolin-5-yloxy)-1-phenyl-ethanol] | < 1
41 | Nc1nc(N)c2c(COc3cccc(Cl)c3)cccc2n1 [Example 158, 5-(3-Chlorophenoxymethyl)quinazoline-2,4-diamine] | < 1
42 | Nc1nc(N)c2c(COc3ccccc3I)cccc2n1 [Example 159, 5-(2-Iodophenoxymethyl)quinazoline-2,4-diamine] | < 1
43 | Nc1nc(N)c2c(OCC(O)c3ccc(Cl)cc3)cccc2n1 (stereo not shown) [Example 160, 1-(4-Chlorophenyl)-2-(2,4-diaminoquinazolin-5-yloxy)ethanol] | < 1
44 | Nc1nc(N)c2c(OCC(O)c3cccc(Cl)c3)cccc2n1 (stereo not shown) [Example 161, 1-(3-Chlorophenyl)-2-(2,4-diaminoquinazolin-5-yloxy)ethanol] | < 1
45 | C[C@H](Oc1cccc2nc(N)nc(N)c12)c1cccc(Cl)c1 [Example 162, 5-[(S)-1-(3-Chlorophenyl)ethoxy]quinazolin-2,4-diamine] | < 1

same assay, conditions: SMN2 promoter driving β-lactamase, 12 point dose curve, average of 3-6 dose curve experiments

Row | SMILES | EC50 [µM]
46 | Nc1nc(N)c2c(OC3C4CC5CC(C4)CC3C5)cccc2n1 (stereo not shown) [Example 119, 5-(Adamanta-2-yloxy)quiazoline-2,4-diamine] | < 1
47 | Nc1nc(N)c2c(OCC3CCN(C(=O)c4cccc(I)c4)CC3)cccc2n1 [Example 135, [4-(2,4-Diaminoquinzolin-5-yloxymethyl)piperidin-1-yl]-(3-iodophenyl)methanone] | < 1
48 | Nc1nc(N)c2c(OCC3CCN(C(=O)c4ccc(I)cc4)CC3)cccc2n1 [Example 136, [4-(2,4-Diaminoquinzolin-5-yloxymethyl)piperidin-1-yl]-(4-iodophenyl)methanone] | < 1
49 | Nc1nc(N)c2c(OCC3CCN(C(=O)c4ccccc4I)CC3)cccc2n1 [Example 137, [4-(2,4-Diaminoquinzolin-5-yloxymethyl)piperidin-1-yl]-(2-iodophenyl)methanone] | < 1
